Measured values reported in US7893027B2, “Treatment of ocular wounds and ulcers” (The Board of Regents of the University of Oklahoma, priority 2002, dated 2011).

What was measured:
Type in all cases: cell-based, human
[1] = system: CAP37 protein in HCEC; assay: Immunocytochemical detection of CAP37 protein induction in HCEC; conditions: for Time of maximum CAP37 protein induction: HCEC
Procedure: (§1) For immunocytochemical analysis of HCEC and stromal keratocytes in culture, the cells were cultured on coverslips (CORNING COSTAR, Acton, Mass.) placed within 24-well tissue culture plates (CORNING COSTAR) until they reached 70% confluence and immunostained for CAP37 as described above except for the following changes. Cells were fixed in formol-acetone, pH 7.4 for 60 s at 4° C. (13) and were stained using the mouse anti-human CAP37 antiserum (1:500 dilution).
(§2) To determine if pro-inflammatory cytokines could induce CAP37 in HCEC and keratocytes we treated these cell cultures with TNF-α (0-10 ng/ml, Boehringer-Mannheim, Indianapolis, Ind.) and IL-1β (0-20 ng/ml, ENDOGEN, Woburn, Mass.) for 0-24 hr and assayed the cells immunocytochemically for the presence of CAP37 protein as described above. Untreated cell cultures were included for each test sample. In addition to protein detection, upregulation of CAP37 mRNA in response to TNF-α and IL-1β was measured by RT-PCR as described below.

[2] = system: CAP37 mRNA in HCEC; assay: RT-PCR of CAP37 mRNA induction in HCEC
Procedure: as §2
Cultured HCEC were treated with 5 ng/ml TNF-α and 10 ng/ml IL-1β for 0-8 hr at 37° C. Total cellular RNA was isolated from untreated and treated HCEC according to vendor specifications (TRIzol™, Gibco BRL). After reverse-transcription of 5 μg of total RNA by random oligonucleotide priming (hexanucleotide mix, BOEHRINGER-MANNHEIM, GmbH, Germany), the resulting single stranded cDNA was amplified by PCR (PERKIN ELMER 2400 thermocycler, Norwalk, Conn.) using CAP37 specific primers ([…] (SEQ ID NO:9) and […] (SEQ ID NO:10)) designed for a 597 bp internal fragment of HL60-CAP37 (34). The reaction conditions for reverse transcription were 80 units of RNAse inhibitor (SIGMA), 8 μl of 5× strand buffer, 2 μl of random hexanucleotide mix, 1 mM dNTPs (GIBCO BRL), 10 mM DTT (GIBCO BRL), and 400 units of M-MLV RT (GIBCO BRL) in a total volume of […]. The reaction mix was incubated at 37° C. for 50 min followed by incubation at 70° C. for 15 min. The PCR mix (1.5 mM MgCl2, 0.2 mM dNTPs, 1.26 μM of each primer and 1 unit Taq polymerase, GIBCO BRL) was amplified for 30 cycles. Amplified DNA fragments were separated by electrophoresis on a 1% agarose gel and visualized by exposure to UV after ethidium bromide (0.5 μg/ml) staining. To assess the integrity of the cDNA, primers for human β-actin were used.

[3] = system: CAP37 protein in stromal keratocytes; assay: Immunocytochemical detection of CAP37 protein induction in stromal keratocytes
Procedure: as §1, §2

[4] = system: PECAM-1 (CD31); assay: Flow cytometry of PECAM-1 expression on HCEC; conditions: TNF-α control, after 12 hr
Procedure: Flow cytometry was used to assess the upregulation of PECAM-1 (CD31), and the integrin molecules β1 (CD29), β2 (CD18), β3 (CD61), β4 (CD104), α1 (CD49a), α2 (CD49b), α3 (CD49c), α4 (CD 49d), and αv (CD51). Human corneal epithelial cells were cultured as above and treated with CAP37 (0-2000 ng/ml) for 0-72 hr. A corresponding culture was left untreated at each time point. Following treatment with CAP37, cells were detached with 0.25% trypsin in 1 mM EDTA (pH 7.4, FISHER SCIENTIFIC, Pittsburgh, Pa.), washed twice in PBS and fixed with 0.125% paraformaldehyde (J.T. BAKER, Phillipsburg, N.J.) overnight at 4° C. The cells were washed in PBS and then incubated in 0.5% normal goat serum and 0.5% bovine serum albumin (BSA) in PBS for 30 min to block non-specific binding sites. Cells were incubated in the primary antibody (at concentrations described below) at 4° C. for 1 hr followed by the secondary antibody (FITC-goat anti-mouse IgG, PHARMINGEN, San Diego, Calif.) at 0.5 μg/10^6 cells and incubated at 4° C. for 30 min. The isotype control for these studies was FITC-labeled mouse isotype IgG1 (PHARMINGEN). The cells were analyzed by flow cytometry (FACS Calibur, BECTON DICKINSON, San Jose, Calif.). At least ten thousand cells were analyzed for each sample. […]

Substance | Time of maximum CAP37 protein induction [1] [h] | Time point at which expression of CAP37 protein was observed ([1]; HCEC treated with IL-1β) [h] | Initial expression of CAP37 mRNA post stimulation ([2]; IL-1β 10 ng/ml) [h] | CAP37 mRNA ([2]; IL-1β 10 ng/ml, 6 hr) | Induction of CAP37 protein [3] | Earliest detection of CAP37 protein ([1]; HCEC treated with TNF-α) [min] | Earliest expression of CAP37 mRNA ([2]; TNF-α 5 ng/ml) [min] | Time of maximum CAP37 mRNA levels ([2]; TNF-α 5 ng/ml, reduced by 4 hr) | Duration of effect on PECAM-1 expression [4]
IL-1β: proinflammatory cytokine used to induce CAP37 | 24 | 4 | 1 | can be detected | showed the induction of CAP37 protein |  |  |  | 
TNF-α | 24 |  |  |  | showed the induction of CAP37 protein | 60 | 15 | between 30 min and 2 hr | more sustained, lasting until 24 hr
